Patent US20240018158A1, “BRM TARGETING COMPOUNDS AND ASSOCIATED METHODS OF USE” (Prelude Therapeutics Incorporated, priority 2020, published 2024)

Legend:
SMARCA4 = SMARCA4 (Homo sapiens (Human), UniProt P51532); experiment: In Cell Western SMARCA4 degradation in NCIH520 cells; type: cell-based; conditions: for DC50: H520 cells, overnight, read-out: DC50 (SM4_H520) SMARCA4 degradation potency; for Dmax: NCI-H520, overnight, read-out: Dmax % (SM4_H520) maximum SMARCA4 degradation within the concentrations tested
Method: (§1) Compound titration and cell culture: Compounds were dissolved in DMSO to make 10 mM stock and 3-fold series dilutions were further conducted keeping the highest concentration 10 μM. NCIH1693 and NCIH520 cells were maintained in PRMI 1640 medium (Corning Cellgro, Catalog #:10-040-CV) supplemented with 10% v/v FBS (GE Healthcare, Catalog #: SH30910.03) by splitting 1:3 twice a week.
(§2) To determine SMACRA2 and SMARCA4 protein degradation DC50 values in NCIH1693 and NCIH520 cells by In Cell Western (ICW) analysis. Cells were trypsinized and 30 thousand cells/well were seeded into 384-well plates and were allowed to grow for 5 hours at 37° C. Eight-point, 3-fold serial dilutions of compounds from 10 mM stocks were added to the cells (using digital Dispenser D300-Tecan, keeping highest concentration 10 μM and normalizing with DMSO at the highest dispensed volume). Plates were incubated at 37° C. for overnight (maximum 18 hours). Cells incubated with DMSO was used as a vehicle control.
(§3) To perform In Cell Western, medium was removed from all the wells leaving cells attached to the surface. After removing the medium, cells were fixed within the plates with 40 μL of 4% formaldehyde by incubating at room temperature for 30 minutes, and then permeabilized with wash buffer (1×PBS with 0.1% Triton X-100) by washing the plate 5 times with 50 μL/well. Before labeling with primary antibodies, cells were blocked with 30 μL/well of blocking buffer (Licor Odyssey blocking buffer PBS #927-40000) for 30 minutes at room temperature. To measure SMARCA2 or SMARCA4 proteins, cells were labeled with 20 μL/well of anti SMARCA2 or SMACRA4 antibodies (Cell Signaling BRM #11966S 1:1000, Cell Signaling BRG #49360S 1:1000) diluted in Li-Cor Odyssey blocking buffer-PBS #927-40000, followed by overnight incubation at 4° C.
(§4) The next day, plates were washed 5×5 minutes with 50 μL/well of washing buffer to remove all the excess primary antibody and then 20 μL from a mixture of secondary antibody and fluorescent DNA specific dye (Goat anti rabbit 1:500 IRDye-800CW #92632211, and DRAQ5™ 1:2000-#ab108410) was added to each well. Plates were incubated for 1 hour at room temperature with gentle rocking. Cells were washed 5 times with 50 μL/well wash buffer, followed by one last wash with DI water, followed by 10 mins drying at 37° C. oven before scanning. Plates were scanned using Li-Cor Odyssey CLx imaging system to acquire integrated intensities at 700 nm and 800 nm. SMARCA signals were normalized to total cell count and then these normalized values were used to calculate the percent degradation relative to DMSO control and maximum inhibition. DC50s were calculated by using the GraphPad Prism4 program based on sigmoidal dose response equation ([Inhibitor] vs. normalized response−Variable slope).

[1] = target: bromodomain of SMARCA2 protein (Homo sapiens (Human), UniProt P40337+P51531); experiment: SMARCA2 bromodomain ternary binding TR-FRET assay (with VCB); conditions: with saturating VCB (5 μM); read-out: IC50 (SM 2_T) ternary binding potency in SMARCA2 FRET assay
Excerpt: Recombinant bromodomain of SMARCA2 protein was purchased from Active Motif (Catalog #: 31449). VHL/ElonginB/ElonginC (VCB)N-terminal his6-tagged VHL (“his6” disclosed as SEQ ID NO: 4) (uniprot accession number P40337; M54-D213; […] […] […] (SEQ ID NO: 1)), Elongin B (Q15370; M1-K104; […] […] (SEQ ID NO: 2)), Elongin C (Q15369; M17-C112; […] […] (SEQ ID NO: 3)) complex were co-expressed and the complex was purified by Ni-affinity, TEV protease was then used to remove his6-tagged (SEQ ID NO: 4), and the complex was further purified by size-exclusion chromatography before use.
The inhibitory activity of compounds was evaluated in vitro using TR-FRET assay with white 384-well low volume microplate (PerkinElmer ProxiPlate Plus), in which the compound competes the same binding site with the ligand, and thus lead to dose-dependent TR-FRET signal reduction. The cooperativity of the compounds for ternary complex formation with E3 ligase was evaluated in the absence or presence of saturating concentrations of VCB. Testing compounds were dissolved in DMSO at […] and tested in 9-dose IC50. The assay mixture was prepared by mixing SMARCA2 (10 nM final), biotinylated probe (25 nM final), and assay buffer or VCB (5 μM) in 1×AlphaLISA Epigenetics Buffer (PerkinElmer AL008F) with 1 mM TCEP. The compounds in DMSO were added to each well in 3-fold serial dilution by dispenser (TECAN D300E) and incubate for 20 minutes at room temperature before addition of detection reagents, Lance Eu W1024 anti-6×His (0.6 nM final, PerkinElmer AD0110) and Streptavidin Surelight APC (6 nM final, PerkinElmer CR130-100). The plate was then sealed and further incubated at 4° C. overnight in dark, and then was read by Envision multimode plate reader (PerkinElmer, 2102-0010). The ratio of florescence signal at 665/620 was used in data analysis. Percentage inhibition was calculated by % inhibition=100×(FDMSO-F)/(FDMSO-FPC), in which FDMSO is DMSO control, and FPC is positive control. IC50 values were determined from dose response curve by fitting the percent inhibition against compound concentration using GraphPad Prism software.

NCIH1693 cells = experiment: Cell proliferation assay (ATPlite) in NCIH1693 cells; type: cell-based; conditions: Homo sapiens, NCI-H1693, 96 h, day 4, read-out: IC50 (PRO_H1693) antiproliferation potency
Method: One thousand NCIH1693 or NCIH1703 cells per well were seeded in 96 well plate and incubated at 37° C. for 5 hrs. A series of three-fold dilution of compounds from 10 mM stock concentration were added to the cells by using digital Dispenser D300-Tecan, keeping highest concentration 10 μM and normalizing with DMSO at the highest dispensed volume). Cells incubated with DMSO was used as a vehicle control. After compound treatment plates were incubated at 37° C. for 4 days and cell viability was measured by measuring ATP content from the cell lysate using ATPlite Luminescence assay system (PerkinElmer Cat. no #6016941). Percentage of viable cells, relative to DMSO vehicle control and maximum inhibition, was calculated and plotted in Graphpad Prism ([Inhibitor] vs. normalized response−Variable slope) to determine cell proliferation IC50 values on day 4.

SMARCA2 = SMARCA2 (Homo sapiens (Human), UniProt P51531); experiment: In Cell Western SMARCA2 degradation in NCIH520 cells; type: cell-based; conditions: for DC50: H520 cells, overnight, read-out: DC50 (SM2_H520) SMARCA2 degradation potency; for Dmax: NCI-H520, overnight, read-out: Dmax % (SM2_H520) maximum SMARCA2 degradation within the concentrations tested
Method: as §1, §2, §3, §4

[2] = tested on: SMARCA4 mutated cancer cells; conditions: Vangamudi et al. Cancer Res 2015; cited from earlier work

Sequence of SMARCA2 (P51531 whole entry): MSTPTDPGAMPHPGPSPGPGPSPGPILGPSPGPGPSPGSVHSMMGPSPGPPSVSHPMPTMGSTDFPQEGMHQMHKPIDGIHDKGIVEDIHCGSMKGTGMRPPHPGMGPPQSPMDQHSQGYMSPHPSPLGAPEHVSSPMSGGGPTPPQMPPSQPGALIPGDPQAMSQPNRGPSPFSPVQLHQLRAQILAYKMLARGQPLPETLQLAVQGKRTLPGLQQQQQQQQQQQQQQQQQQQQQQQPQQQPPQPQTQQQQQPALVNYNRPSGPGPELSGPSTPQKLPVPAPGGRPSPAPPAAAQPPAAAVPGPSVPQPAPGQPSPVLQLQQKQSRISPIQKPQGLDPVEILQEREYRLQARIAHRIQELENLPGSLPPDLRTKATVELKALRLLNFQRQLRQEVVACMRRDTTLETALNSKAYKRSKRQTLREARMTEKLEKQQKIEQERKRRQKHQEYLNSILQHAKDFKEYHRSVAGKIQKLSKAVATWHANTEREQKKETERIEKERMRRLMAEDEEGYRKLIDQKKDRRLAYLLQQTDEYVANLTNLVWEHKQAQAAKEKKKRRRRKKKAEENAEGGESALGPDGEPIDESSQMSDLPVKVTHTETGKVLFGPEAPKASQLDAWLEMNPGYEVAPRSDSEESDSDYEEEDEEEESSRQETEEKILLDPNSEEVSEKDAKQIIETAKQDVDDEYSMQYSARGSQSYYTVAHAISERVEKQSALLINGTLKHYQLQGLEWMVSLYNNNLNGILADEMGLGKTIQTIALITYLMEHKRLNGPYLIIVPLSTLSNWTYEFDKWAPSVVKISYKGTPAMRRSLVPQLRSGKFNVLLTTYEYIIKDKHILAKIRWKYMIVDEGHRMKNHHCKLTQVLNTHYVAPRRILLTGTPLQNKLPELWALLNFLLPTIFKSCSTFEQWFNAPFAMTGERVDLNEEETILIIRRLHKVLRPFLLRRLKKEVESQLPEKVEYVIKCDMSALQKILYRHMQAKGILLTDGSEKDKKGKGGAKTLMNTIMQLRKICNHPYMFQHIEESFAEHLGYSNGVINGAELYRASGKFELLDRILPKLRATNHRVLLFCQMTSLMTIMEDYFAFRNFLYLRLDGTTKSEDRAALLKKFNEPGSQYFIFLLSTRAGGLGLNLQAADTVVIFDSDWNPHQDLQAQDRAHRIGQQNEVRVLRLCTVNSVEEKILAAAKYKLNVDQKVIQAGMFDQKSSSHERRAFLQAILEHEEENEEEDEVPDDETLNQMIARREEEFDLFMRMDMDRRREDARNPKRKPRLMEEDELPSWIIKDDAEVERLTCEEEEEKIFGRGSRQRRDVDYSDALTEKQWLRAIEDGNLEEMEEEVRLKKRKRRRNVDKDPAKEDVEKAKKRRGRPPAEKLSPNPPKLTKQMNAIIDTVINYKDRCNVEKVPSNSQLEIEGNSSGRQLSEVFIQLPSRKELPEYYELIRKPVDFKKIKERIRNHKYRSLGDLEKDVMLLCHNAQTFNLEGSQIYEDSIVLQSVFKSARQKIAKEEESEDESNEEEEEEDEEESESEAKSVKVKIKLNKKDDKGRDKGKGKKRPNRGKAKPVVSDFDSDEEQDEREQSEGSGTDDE
Sequence of bromodomain of SMARCA2 protein (P51531 whole entry, looked up): as the sequence (P51531 whole entry) above
Sequence of bromodomain of SMARCA2 protein (P40337 whole entry, looked up): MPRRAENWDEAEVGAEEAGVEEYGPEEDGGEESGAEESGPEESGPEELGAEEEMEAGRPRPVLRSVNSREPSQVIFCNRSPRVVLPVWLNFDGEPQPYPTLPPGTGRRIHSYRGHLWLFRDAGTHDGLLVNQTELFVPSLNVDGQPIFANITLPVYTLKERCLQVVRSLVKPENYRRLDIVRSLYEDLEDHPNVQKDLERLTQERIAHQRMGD
Sequence of bromodomain of SMARCA2 protein (Q15370 whole entry partner, looked up): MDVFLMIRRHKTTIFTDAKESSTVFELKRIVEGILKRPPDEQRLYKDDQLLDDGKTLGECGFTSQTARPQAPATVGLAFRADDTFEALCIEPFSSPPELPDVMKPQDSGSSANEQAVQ
Sequence of bromodomain of SMARCA2 protein (Q15369 whole entry partner, looked up): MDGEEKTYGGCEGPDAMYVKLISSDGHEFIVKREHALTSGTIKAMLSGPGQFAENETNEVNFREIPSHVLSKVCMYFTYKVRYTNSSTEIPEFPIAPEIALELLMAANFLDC
Sequence of SMARCA4 (P51532 whole entry): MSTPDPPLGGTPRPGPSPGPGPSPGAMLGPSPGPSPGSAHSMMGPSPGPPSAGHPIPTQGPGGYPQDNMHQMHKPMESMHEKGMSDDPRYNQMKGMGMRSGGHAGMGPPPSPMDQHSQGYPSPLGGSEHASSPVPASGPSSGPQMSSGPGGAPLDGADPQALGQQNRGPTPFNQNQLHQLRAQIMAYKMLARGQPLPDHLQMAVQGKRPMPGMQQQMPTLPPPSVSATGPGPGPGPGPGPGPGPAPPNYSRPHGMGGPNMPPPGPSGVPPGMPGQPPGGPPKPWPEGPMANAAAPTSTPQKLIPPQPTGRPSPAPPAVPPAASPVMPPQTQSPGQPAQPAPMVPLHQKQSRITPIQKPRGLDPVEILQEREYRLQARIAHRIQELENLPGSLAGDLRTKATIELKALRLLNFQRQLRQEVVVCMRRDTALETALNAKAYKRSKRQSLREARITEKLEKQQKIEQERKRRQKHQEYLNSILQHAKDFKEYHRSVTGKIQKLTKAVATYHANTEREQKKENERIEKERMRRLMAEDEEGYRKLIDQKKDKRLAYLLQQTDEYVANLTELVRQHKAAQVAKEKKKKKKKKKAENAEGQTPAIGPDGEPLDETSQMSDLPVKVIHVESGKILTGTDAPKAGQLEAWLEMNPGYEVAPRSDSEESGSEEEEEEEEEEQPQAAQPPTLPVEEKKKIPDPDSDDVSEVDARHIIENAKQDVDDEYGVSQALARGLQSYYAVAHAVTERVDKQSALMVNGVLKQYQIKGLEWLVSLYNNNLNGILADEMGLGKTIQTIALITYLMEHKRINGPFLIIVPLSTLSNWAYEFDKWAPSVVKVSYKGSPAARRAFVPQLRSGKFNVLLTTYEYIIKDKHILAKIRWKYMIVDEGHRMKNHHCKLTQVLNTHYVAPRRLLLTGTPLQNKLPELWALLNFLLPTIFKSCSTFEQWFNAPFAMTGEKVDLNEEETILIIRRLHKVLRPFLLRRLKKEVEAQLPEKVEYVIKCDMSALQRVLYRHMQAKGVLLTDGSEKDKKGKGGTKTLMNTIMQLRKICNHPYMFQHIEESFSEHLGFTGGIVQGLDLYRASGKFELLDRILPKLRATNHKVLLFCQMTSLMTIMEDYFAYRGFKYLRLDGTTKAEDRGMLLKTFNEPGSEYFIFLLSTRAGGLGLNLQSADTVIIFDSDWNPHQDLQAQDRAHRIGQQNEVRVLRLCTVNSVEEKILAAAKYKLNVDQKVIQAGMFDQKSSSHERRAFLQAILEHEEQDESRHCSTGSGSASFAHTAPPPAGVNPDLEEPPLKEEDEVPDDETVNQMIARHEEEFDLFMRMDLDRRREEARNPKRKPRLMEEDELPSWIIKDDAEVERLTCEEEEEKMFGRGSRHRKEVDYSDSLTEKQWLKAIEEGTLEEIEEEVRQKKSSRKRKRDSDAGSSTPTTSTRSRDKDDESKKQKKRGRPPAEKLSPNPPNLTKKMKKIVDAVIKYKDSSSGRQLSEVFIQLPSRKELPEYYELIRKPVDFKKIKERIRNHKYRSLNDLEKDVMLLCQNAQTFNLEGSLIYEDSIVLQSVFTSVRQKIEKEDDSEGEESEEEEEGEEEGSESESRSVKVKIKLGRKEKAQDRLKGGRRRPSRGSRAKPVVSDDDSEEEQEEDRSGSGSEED

DC50 (SMARCA4) | Dmax (SMARCA4) | IC50 [1] | DC50 (SMARCA2) | Dmax (SMARCA2) | Compound | IC50 (NCIH1693 cells) | effects on cell proliferation inhibition [2]
100 to 1000 nM | > 75% | 100 to 1000 nM | 100 to 1000 nM | > 75% | Cc1ncsc1-c1ccc([C@H](C)NC(=O)[C@@H]2C[C@@H](O)CN2C(=O)[C@@H](NC(=O)CN2CCN3c4cc(-c5ccccc5O)nnc4NCC3C2)C(C)(C)C)cc1 (single isomer, unassigned) [Example 1a] | 100 to 1000 nM | –
< 100 nM | > 75% | < 100 nM | < 100 nM | > 75% | Cc1ncsc1-c1ccc([C@H](C)NC(=O)[C@@H]2C[C@@H](O)CN2C(=O)C(c2cc(OCCN3CCC(CN4CCN5c6cc(-c7ccccc7O)nnc6NCC5C4)CC3)no2)C(C)C)cc1 (stereo in doubt) [Example 5, (2S,4R)-4-hydroxy-1-((2S)-2-(3-(2-(4-((2-(2-hydroxyphenyl)-5,6,6a,7,9,10-hexahydro-8H-pyrazino[1′,2′:4,5]pyrazino[2,3-c]pyridazin-8-yl)methyl)piperidin-1-yl)ethoxy)isoxazol-5-yl)-3-methylbutanoyl)-N-((S)-1-(4-(4-methylthiazol-5-yl)phenyl)ethyl)pyrrolidine-2-carboxamide] | – | –
100 to 1000 nM | > 75% | < 100 nM | < 100 nM | > 75% | Cc1ncsc1-c1ccc([C@H](C)NC(=O)[C@@H]2C[C@@H](O)CN2C(=O)[C@@H](NC(=O)CN2CCC(CN3CCN4c5cc(-c6ccccc6O)nnc5NCC4C3)CC2)C(C)(C)C)cc1 (stereo partly drawn) [Example 3, (2S,4R)-4-hydroxy-1-((2S)-2-(2-(4-((2-(2-hydroxyphenyl)-5,6,6a,7,9,10-hexahydro-8H-pyrazino[1′,2′:4,5]pyrazino[2,3-c]pyridazin-8-yl)methyl)piperidin-1-yl)acetamido)-3,3-dimethylbutanoyl)-N-((S)-1-(4-(4-methylthiazol-5-yl)phenyl)ethyl)pyrrolidine-2-carboxamide] | – | –
100 to 1000 nM | > 75% | < 100 nM | < 100 nM | > 75% | Cc1ncsc1-c1ccc([C@H](C)NC(=O)[C@@H]2C[C@@H](O)CN2C(=O)[C@@H](c2cc(OCCN3CCN4c5cc(-c6ccccc6O)nnc5NCC4C3)no2)C(C)C)cc1 (stereo partly drawn) [Example 4, (2S,4R)-4-hydroxy-1-((2R)-2-(3-(2-(2-(2-hydroxyphenyl)-5,6,6a,7,9,10-hexahydro-8H-pyrazino[1′,2′:4,5]pyrazino[2,3-c]pyridazin-8-yl)ethoxy)isoxazol-5-yl)-3-methylbutanoyl)-N-((S)-1-(4-(4-methyl-1λ^3,3λ^2-thiazol-5-yl)phenyl)ethyl)pyrrolidine-2-carboxamide] | < 100 nM | –
– | – | – | – | – | O=C(/C=C/N1C[C@H]2C[C@@H]1CN2c1ccccn1)c1ccccc1O [PFI-3] | – | none to minor effects
